Results as given in patent publication US20050065208A1, “Benzofuranes and their use in the treatment of atrial fibrillation” (priority 2001, published 2005).
pIC50: −log10 of the molar value. Where two headings read alike, the source gives them in different places.

Tests used:
[1] = target: T1, IK(Ado), adenosine activated K-current (Homo sapiens, UniProt P48544+P48549); set-up: key to Blocking activity on IK(Ado): Yes: The compound has been demonstrated to inhibit the particular current (reference within parenthesis).; No: The compound has been demonstrated to not inhibit the particular current (reference within parenthesis).; U: No data regarding interaction of the compound with the particular current has been found in the literature; conditions: cited from earlier work; for pIC50: literature value, read-out: Inhibition of IK (Ado) Induced by Adenosine (IC50); for Blocking activity on IK(Ado): Table 2, literature
T1 construct: electrophysiology technique applied to cardiomyocyte cultures; endogenous in cells
T1 sequence (P48549 1-501): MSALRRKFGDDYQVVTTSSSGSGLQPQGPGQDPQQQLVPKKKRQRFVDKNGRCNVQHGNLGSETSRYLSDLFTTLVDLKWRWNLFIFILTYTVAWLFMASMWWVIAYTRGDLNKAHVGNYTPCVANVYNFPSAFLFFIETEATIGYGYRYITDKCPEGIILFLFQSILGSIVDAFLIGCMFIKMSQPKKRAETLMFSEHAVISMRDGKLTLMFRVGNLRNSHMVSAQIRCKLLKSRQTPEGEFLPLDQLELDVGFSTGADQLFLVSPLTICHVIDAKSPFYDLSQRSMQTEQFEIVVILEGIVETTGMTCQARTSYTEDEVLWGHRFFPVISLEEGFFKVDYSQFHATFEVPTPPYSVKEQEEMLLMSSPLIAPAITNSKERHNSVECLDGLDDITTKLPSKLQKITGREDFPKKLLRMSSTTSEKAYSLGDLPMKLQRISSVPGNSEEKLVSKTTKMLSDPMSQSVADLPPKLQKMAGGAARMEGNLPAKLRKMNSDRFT
T1 sequence (P48544 1-419): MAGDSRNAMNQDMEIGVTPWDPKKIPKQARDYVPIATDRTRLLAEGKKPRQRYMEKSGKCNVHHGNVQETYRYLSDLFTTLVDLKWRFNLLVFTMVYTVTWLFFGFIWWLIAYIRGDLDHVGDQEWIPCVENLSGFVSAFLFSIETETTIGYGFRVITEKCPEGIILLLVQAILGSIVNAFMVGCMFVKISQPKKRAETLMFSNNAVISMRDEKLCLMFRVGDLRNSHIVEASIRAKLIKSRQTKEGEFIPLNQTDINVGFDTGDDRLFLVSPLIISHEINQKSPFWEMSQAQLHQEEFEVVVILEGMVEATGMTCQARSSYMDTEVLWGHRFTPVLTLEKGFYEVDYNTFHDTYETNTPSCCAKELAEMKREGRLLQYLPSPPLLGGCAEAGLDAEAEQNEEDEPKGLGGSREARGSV

[2] = target: T2, IK(ACh), AcetylCholine activated K-current (Homo sapiens, UniProt P48544+P48549); set-up: key to Blocking activity on IK(ACh): Yes: The compound has been demonstrated to inhibit the particular current (reference within parenthesis).; No: The compound has been demonstrated to not inhibit the particular current (reference within parenthesis).; U: No data regarding interaction of the compound with the particular current has been found in the literature; conditions: cited from earlier work; for pIC50: current induced by ACh or carbachol, literature value, read-out: Inhibition of IK (ACh) (Induced by ACh or Carbachol) (IC50); for Blocking activity on IK(ACh): Table 2, literature
T2 construct: electrophysiology technique applied to cardiomyocyte cultures; endogenous in cells
T2 sequence (P48549 1-501): T1 sequence (P48549 1-501)
T2 sequence (P48544 1-419): T1 sequence (P48544 1-419)

[3] = system: IK1, inward rectifier K-current; set-up: key: Yes: The compound has been demonstrated to inhibit the particular current (reference within parenthesis).; No: The compound has been demonstrated to not inhibit the particular current (reference within parenthesis).; U: No data regarding interaction of the compound with the particular current has been found in the literature; conditions: Table 2, literature; cited from earlier work
[4] = target: IKs, slow component of the delayed rectifier K-current (Homo sapiens, UniProt P51787); set-up: key: Yes: The compound has been demonstrated to inhibit the particular current (reference within parenthesis).; No: The compound has been demonstrated to not inhibit the particular current (reference within parenthesis).; U: No data regarding interaction of the compound with the particular current has been found in the literature; conditions: Table 2, literature; cited from earlier work
[5] = system: Ito, transient outward K-current; set-up: key: Yes: The compound has been demonstrated to inhibit the particular current (reference within parenthesis).; No: The compound has been demonstrated to not inhibit the particular current (reference within parenthesis).; U: No data regarding interaction of the compound with the particular current has been found in the literature; conditions: Table 2, literature; cited from earlier work
[6] = target: INa, depolarizing Na-current (Homo sapiens, UniProt Q14524); set-up: key: Yes: The compound has been demonstrated to inhibit the particular current (reference within parenthesis).; No: The compound has been demonstrated to not inhibit the particular current (reference within parenthesis).; U: No data regarding interaction of the compound with the particular current has been found in the literature; conditions: Table 2, literature; cited from earlier work
[7] = target: T3, IK(ATP), ATP-sensitive K-current (Homo sapiens, UniProt Q14654); set-up: key: Yes: The compound has been demonstrated to inhibit the particular current (reference within parenthesis).; No: The compound has been demonstrated to not inhibit the particular current (reference within parenthesis).; U: No data regarding interaction of the compound with the particular current has been found in the literature; conditions: Table 2, literature; cited from earlier work
T3 construct: electrophysiology technique applied to cardiomyocyte cultures; endogenous in cells; current induced with dinitrophenole

[8] = target: T1, IK(Ado), adenosine activated K-current; experiment: Voltage clamp on cardiomyocyte cultures: inhibition of adenosine-induced K-current; type: cell-based
From the text: (§1) In the present invention acute and chronic effects of various compounds have been investigated by using electrophysiology technique applied to cardiomyocyte cultures.
(§2) The inhibitory effects occur within seconds after induction of the current with ACh, Ado or dinitrophenole (DNP reduces intracellular ATP). The acute inhibitory effects caused by the compounds of the present invention on these K-currents in cardiac muscle tissue had not previously been discovered. The reasons for this include the fact that these ligand activated K-currents (IK(Ado), IK(ACh) and IK(ATP)) are preferentially active in the atrial cardiomyocytes (Workman A J et al. Cardiovasc Res 1999 September;43(4):974-84; Koumi S-I, and Wasserstorm A. American Journal of Physiology 266[35], H1812-H1821. 1994), while previous studies have been carried out with tissue from cardiac ventricles. Furthermore, IK(Ado) and IK(ACh) must first be induced via the M2 or A1 receptor (with ACh and Ado respectively) before any inhibition can be observed. Without any agonist at the extracellular site of the membrane these ligand-gated channels probably have only minor roles in shaping repolarization but, when activated by extracellular acetylcholine or adenosine, they can substantially shorten action potential duration in the atrium (Tristani-Firouzi M et al. Am J Med 2001 January; 110(1):50-9).
(§3) The following Table 1 illustrates the potency (IC50-values) of compounds of formulae I and II compared with other anti-arrhythmic drugs to inhibit the transmembrane currents IK(Ado) and IK(ACh) after stimulation of the currents with Adenosine or Acetylcholine (or Carbachol).

[9] = target: T2, IK(ACh), AcetylCholine activated K-current; experiment: Voltage clamp on cardiomyocyte cultures: inhibition of K-current induced by ACh or carbachol; type: cell-based
From the text: as §1, §2, §3

T3 sequence (Q14654 whole entry): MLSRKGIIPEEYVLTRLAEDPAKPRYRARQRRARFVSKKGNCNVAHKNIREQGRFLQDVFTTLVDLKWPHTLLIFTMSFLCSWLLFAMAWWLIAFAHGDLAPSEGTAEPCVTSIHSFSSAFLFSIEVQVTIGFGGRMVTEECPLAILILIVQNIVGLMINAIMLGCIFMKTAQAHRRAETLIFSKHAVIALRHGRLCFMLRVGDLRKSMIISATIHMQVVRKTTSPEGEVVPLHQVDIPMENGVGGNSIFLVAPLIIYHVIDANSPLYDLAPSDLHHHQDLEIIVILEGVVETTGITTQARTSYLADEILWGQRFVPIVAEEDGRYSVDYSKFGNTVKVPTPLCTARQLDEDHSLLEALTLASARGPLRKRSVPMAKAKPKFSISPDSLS
T3 sequence (O60706 whole entry partner): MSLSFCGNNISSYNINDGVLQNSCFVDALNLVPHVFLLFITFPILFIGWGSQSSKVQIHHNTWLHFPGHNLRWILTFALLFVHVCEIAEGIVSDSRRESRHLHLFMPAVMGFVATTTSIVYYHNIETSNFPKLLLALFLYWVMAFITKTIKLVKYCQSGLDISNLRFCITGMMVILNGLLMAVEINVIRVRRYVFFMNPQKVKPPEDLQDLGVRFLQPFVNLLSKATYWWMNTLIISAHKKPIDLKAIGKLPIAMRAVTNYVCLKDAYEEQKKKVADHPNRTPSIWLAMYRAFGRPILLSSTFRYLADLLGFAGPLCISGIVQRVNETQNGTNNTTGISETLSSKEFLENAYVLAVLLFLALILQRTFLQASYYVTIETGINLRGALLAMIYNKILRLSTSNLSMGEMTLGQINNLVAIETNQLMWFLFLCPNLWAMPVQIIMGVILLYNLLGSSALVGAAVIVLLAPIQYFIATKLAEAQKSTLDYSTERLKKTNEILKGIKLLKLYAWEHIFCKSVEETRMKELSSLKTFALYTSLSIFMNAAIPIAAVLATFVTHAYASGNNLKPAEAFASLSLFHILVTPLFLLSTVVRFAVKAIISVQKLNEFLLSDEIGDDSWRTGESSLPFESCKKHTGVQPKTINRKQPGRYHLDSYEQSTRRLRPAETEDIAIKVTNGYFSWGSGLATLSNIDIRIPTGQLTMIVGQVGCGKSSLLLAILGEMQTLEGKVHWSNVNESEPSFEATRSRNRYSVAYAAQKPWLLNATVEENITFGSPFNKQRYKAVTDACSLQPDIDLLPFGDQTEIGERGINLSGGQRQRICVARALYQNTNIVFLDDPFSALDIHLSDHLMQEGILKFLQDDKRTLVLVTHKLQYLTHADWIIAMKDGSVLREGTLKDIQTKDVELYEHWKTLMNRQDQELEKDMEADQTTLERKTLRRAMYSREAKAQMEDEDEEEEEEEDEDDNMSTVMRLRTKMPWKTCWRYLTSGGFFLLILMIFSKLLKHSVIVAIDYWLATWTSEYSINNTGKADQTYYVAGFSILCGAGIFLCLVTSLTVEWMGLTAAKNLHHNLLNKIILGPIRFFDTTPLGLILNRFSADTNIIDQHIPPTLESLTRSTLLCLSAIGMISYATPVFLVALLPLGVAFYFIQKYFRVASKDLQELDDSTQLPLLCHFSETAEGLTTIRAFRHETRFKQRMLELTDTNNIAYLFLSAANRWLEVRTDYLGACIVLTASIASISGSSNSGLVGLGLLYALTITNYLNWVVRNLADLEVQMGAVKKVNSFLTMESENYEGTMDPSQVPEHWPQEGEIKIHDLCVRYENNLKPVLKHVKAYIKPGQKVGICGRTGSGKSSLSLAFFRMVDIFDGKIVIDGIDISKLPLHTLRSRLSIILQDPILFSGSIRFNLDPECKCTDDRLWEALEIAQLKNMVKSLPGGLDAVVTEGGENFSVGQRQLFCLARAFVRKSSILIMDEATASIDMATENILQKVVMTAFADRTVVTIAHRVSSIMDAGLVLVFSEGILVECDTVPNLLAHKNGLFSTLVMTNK
Chain of INa, depolarizing Na-current (Q14524 whole entry): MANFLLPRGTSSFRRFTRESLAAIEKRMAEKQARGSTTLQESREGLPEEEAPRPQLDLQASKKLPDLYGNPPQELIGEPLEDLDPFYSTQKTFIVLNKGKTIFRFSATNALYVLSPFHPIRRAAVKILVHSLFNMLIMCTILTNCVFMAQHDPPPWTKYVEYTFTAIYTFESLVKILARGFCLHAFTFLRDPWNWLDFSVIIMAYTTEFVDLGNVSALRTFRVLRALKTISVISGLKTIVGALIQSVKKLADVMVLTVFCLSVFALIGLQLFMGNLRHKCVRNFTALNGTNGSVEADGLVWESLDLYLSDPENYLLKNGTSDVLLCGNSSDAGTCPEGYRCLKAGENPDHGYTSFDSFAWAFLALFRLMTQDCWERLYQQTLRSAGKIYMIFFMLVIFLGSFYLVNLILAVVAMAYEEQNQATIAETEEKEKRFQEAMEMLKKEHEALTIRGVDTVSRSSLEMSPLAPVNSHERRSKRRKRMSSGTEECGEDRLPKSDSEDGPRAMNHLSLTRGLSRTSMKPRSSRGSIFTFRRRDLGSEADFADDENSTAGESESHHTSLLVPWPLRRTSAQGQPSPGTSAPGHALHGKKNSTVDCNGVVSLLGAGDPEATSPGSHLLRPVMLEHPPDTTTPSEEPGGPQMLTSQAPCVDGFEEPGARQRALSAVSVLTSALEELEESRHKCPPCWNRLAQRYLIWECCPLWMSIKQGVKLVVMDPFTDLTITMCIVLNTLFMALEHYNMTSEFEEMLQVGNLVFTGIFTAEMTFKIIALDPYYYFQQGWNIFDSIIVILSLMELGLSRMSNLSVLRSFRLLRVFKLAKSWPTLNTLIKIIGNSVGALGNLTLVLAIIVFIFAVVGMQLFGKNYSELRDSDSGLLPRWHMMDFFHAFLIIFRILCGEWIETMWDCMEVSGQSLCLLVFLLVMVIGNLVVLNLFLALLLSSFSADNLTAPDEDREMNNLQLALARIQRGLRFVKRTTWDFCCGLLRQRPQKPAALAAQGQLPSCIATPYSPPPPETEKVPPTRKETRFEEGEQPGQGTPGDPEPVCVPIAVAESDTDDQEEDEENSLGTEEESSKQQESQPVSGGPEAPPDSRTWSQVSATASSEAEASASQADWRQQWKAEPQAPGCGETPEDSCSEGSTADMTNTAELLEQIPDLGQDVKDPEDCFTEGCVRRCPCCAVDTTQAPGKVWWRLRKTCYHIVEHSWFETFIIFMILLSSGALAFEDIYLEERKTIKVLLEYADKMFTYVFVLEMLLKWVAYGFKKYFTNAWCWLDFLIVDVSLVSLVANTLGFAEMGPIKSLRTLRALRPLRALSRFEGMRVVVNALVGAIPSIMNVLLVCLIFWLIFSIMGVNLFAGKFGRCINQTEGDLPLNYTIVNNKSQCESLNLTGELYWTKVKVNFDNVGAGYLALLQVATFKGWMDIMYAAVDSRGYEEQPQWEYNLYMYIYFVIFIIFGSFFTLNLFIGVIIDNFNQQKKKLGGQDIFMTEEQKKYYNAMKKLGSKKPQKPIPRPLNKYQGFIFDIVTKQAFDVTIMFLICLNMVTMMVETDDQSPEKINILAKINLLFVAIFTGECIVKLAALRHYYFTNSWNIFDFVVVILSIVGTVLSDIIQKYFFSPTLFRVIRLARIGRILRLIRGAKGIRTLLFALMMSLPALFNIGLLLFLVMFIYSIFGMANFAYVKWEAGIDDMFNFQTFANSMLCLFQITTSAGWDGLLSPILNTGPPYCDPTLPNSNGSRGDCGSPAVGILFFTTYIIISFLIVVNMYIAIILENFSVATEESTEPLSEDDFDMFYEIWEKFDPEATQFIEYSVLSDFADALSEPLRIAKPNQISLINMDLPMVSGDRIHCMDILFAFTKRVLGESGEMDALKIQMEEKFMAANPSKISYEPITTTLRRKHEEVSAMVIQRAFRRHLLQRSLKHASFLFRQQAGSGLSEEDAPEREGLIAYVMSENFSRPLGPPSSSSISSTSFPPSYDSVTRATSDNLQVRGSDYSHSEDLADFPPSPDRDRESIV

| Compound | pIC50 [2] | Blocking activity on IK(ACh) [2] | Blocking activity on IK1 [3] | Blocking activity on IKs [4] | Blocking activity on Ito [5] | Blocking activity on INa [6] | Blocking activity on IK(ATP) [7] | other results |
| --- | --- | --- | --- | --- | --- | --- | --- | --- |
| CC(C)NCC(O)COc1cccc2ccccc12 (centres unmarked) [Propranolol] | 4.25 |  |  |  |  |  |  | pIC50 ([1]; current induced by adenosine): 5.10 |
| CCN(CC)CCCN(c1ccccc1)C1Cc2ccccc2C1 [Aprinidine] | 6.40 | Yes | No | No | Yes | Yes |  |  |
| O=C(NCC1CCCCN1)c1cc(OCC(F)(F)F)ccc1OCC(F)(F)F (centres unmarked) [Flecainide] | 5.44 | Yes | No | No | Yes | Yes | Yes |  |
| CC(C)NCC(O)c1ccc(NS(C)(=O)=O)cc1 (racemic) [d,l-sotalol] | 4.44 | Yes (Mori) | Yes | No | Yes | No |  | Blocking activity on IK(Ado) [1]: No; Inhibition of IK (Ado) Induced by Adenosine, in words ([1]; current induced by adenosine, literature): No effect |
| N[C@@H](Cc1cc(I)c(Oc2ccc(O)c(I)c2)c(I)c1)C(=O)O [Example T3, triiodthyronine] |  |  |  |  |  |  |  | Acute effects on IK(Ado) [8]: does not have acute effects; Acute effects on IK(ACh) [9]: does not have acute effects |
| CCCCc1oc2ccc(NS(C)(=O)=O)cc2c1C(=O)c1ccc(OCCCN(CCCC)CCCC)cc1 [Dronedarone] | 8.00 | Yes |  | Yes |  | Yes |  |  |
| COc1ccc(C2CCN(CC[C@H]3CCOc4ccccc43)CC2)cc1OC [Terikalant] | 5.70 | Yes | Yes | Yes | Yes | No | No | Blocking activity on IK(Ado) [1]: Yes; pIC50 ([1]; current induced by adenosine): 5.70 |
| CC(C)N(CCC(C(N)=O)(c1ccccc1)c1ccccn1)C(C)C (centres unmarked) [Disopyramide] | 5.77 | Yes | No | Yes | Yes | Yes | Yes |  |
| C=C[C@H]1C[N@@]2CC[C@H]1C[C@@H]2[C@@H](O)c1ccnc2ccc(OC)cc12 [Quinidine] | 5.80 | Yes | No | No | Yes | Yes | Yes |  |
| Cc1cccc(CCN2CCC(C(=O)c3ccc(NS(C)(=O)=O)cc3)CC2)n1 [Example E-4031] | 5.10 |  |  |  |  |  |  | Inhibition of IK (Ado) Induced by Adenosine, effect at 100 μM ([1]; literature): Some effect at 100 μM |
| Cc1cccc(C)c1NC(=O)CC12CCCN1CCC2 [SUN 1165] | 4.54 |  |  |  |  |  |  |  |
| Cn1c(NCCN(CCO)CCCc2ccc([N+](=O)[O-])cc2)cc(=O)n(C)c1=O [MS-551] | 4.96 |  |  |  |  |  |  | Inhibition of IK (Ado) Induced by Adenosine, effect at 100 μM ([1]; literature): Some effect at 100 μM |
| Cc1oc2ccccc2c1C(=O)c1cc(I)c(O)c(I)c1 [Example E5, 2-methyl-3-(3,5-diiodo-4-hydroxy-benzoyl)benzofuran] |  |  |  |  |  |  |  | pIC50 ([8]; current induced by adenosine): 6.00; pIC50 ([9]; current induced by ACh or carbachol): 6.00 |
